Data published in US20260184748A1, “COMPOSITIONS COMPRISING OCTADECANEUROPEPTIDES (ODN) AND SYNTHETIC DERIVATIVES THEREOF AND METHODS OF USE FOR MODULATION OF FOOD INTAKE, OBESITY, BODY WEIGHT, NAUSEA, AND EMESIS” (The Trustees of the University of Pennsylvania, priority 2022, published 2026).
Values joined by “and” are separate entries in the source; they are usually repeats but may differ in a detail not shown here. Equal entries are not always repeated. Where two headings read alike, the source gives them in different places. Where a SMILES comes first, the peptide text is derived from it. Where no end group is shown, it is not given here.

How the values were obtained:
[1] = molecular target: PTGIR (Homo sapiens, UniProt P43119); experiment: Arrestin agonist mode; type: cell-based; settings: read-out: RC50 (the source's name)
[2] = test system: GPCR panel; experiment: gpcrMAX agonist mode (beta-arrestin recruitment), GPCR Biosensor Assays; type: cell-based; parameters: Max Response: unit not given here
[3] = molecular target: P2RY12 (Homo sapiens, UniProt Q9H244); experiment: Arrestin agonist mode; type: cell-based; settings: read-out: RC50 (the source's name)
[4] = molecular target: GPR109B (Homo sapiens, UniProt P49019); experiment: Arrestin agonist mode; type: cell-based; settings: read-out: RC50 (the source's name)
[5] = molecular target: OXER1 (Homo sapiens, UniProt Q8TDS5); experiment: Arrestin agonist mode; type: cell-based; settings: read-out: RC50 (the source's name)
[6] = rat, in vivo
[7] = molecular target: TBXA2R (Homo sapiens, UniProt P21731); experiment: Arrestin agonist mode; type: cell-based; settings: read-out: RC50 (the source's name)
[8] = molecular target: KISS1R (Homo sapiens, UniProt Q969F8); experiment: Arrestin agonist mode; type: cell-based; settings: read-out: RC50 (the source's name)
[9] = rat, in vivo, ip
[10] = molecular target: MLNR (Homo sapiens, UniProt O43193); experiment: Arrestin agonist mode; type: cell-based; settings: read-out: RC50 (the source's name)
[11] = molecular target: GPR119 (Homo sapiens, UniProt Q8TDV5); experiment: Arrestin agonist mode; type: cell-based; settings: read-out: RC50 (the source's name)
[12] = molecular target: PTAFR (Homo sapiens, UniProt P25105); experiment: Arrestin agonist mode; type: cell-based; settings: read-out: RC50 (the source's name)
[13] = molecular target: P2RY6 (Homo sapiens, UniProt Q15077); experiment: Arrestin agonist mode; type: cell-based; settings: read-out: RC50 (the source's name)
[14] = molecular target: P2RY2 (Homo sapiens, UniProt P41231); experiment: Arrestin agonist mode; type: cell-based; settings: read-out: RC50 (the source's name)
[15] = molecular target: P2RY4 (Homo sapiens, UniProt P51582); experiment: Arrestin agonist mode; type: cell-based; settings: read-out: RC50 (the source's name)
[16] = molecular target: CCR2 (Homo sapiens, UniProt P41597); experiment: Arrestin agonist mode; type: cell-based; settings: read-out: RC50 (the source's name)
[17] = Kaolin intake (pica) in rats; type: in vivo, rat
[18] = shrews; for emetic episodes: intraperitoneal
[19] = molecular target: NPSR1B (Homo sapiens, UniProt Q6W5P4); experiment: Arrestin agonist mode; type: cell-based; settings: read-out: RC50 (the source's name)
[20] = 24 h body weight change in rats; type: in vivo, rat; settings: 4th ventricle injection
[21] = test system: DBI protein expression; experiment: Hindbrain DBI immunohistochemistry and quantification; type: in vivo, rat; settings: 4th ventricle Ex-4 0.3 μg/2 μL in 24 h fasted HFD-maintained rats
Experimental: Rats maintained on chow or HFD were either ad libitum fed or fasted for 24 h. […] Rats were deeply anesthetized with KAX and transcardially perfused with 0.1 M phosphate-buffered saline (PBS; pH 7.4) followed by 4% paraformaldehyde in 0.1 M PBS on ice. Brains were removed from the crania and post-fixed in 4% paraformaldehyde for 24 h, then stored in 20% sucrose in 0.1 M PBS at 4° C. until sunk. Coronal dorsal vagal complex (DVC) sections (30 μm) were sliced and collected directly onto slides (12-550-15; Superfrost Plus, Fisher Scientific) using a cryostat and stored at −80° C. until the start of immunohistochemistry (IHC). Briefly, tissue was washed with 0.1 M PBS 3 times for 8 minutes and then incubated in blocking solution [5% normal donkey serum (Jackson Immunoresearch) in PBST; PBS with 0.3% triton X] followed by overnight incubation in rabbit anti-DBI primary antibody (1:500; ab231910, Abcam) and chicken anti-vimentin primary antibody (1:2000; ab24525, Abcam) at 4° C. […] Slides were visualized using fluorescence microscopy (BZ-X810, Keyence). Images analysis to quantify the fluorescent intensity of DBI protein staining in the nucleus solitary tractus (NTS) and area postrema (AP) as well as the % colocalization of DBI and vimentin staining in the AP, subpostrema, and 4th ventricle boarder was done using the HALO@FISH-IF and Area Quantification FL modules.

Chain of KISS1R (Q969F8 whole entry): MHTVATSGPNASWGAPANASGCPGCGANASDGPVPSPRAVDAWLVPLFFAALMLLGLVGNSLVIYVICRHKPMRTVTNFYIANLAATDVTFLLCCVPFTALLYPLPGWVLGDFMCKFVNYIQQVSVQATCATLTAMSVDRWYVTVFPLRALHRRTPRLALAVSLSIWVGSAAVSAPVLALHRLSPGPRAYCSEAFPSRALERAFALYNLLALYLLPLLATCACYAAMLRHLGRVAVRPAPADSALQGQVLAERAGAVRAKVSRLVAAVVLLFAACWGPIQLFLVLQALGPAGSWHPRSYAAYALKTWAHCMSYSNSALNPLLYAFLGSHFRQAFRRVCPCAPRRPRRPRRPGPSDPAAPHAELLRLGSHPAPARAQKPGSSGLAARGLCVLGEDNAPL
Chain of CCR2 (P41597 whole entry): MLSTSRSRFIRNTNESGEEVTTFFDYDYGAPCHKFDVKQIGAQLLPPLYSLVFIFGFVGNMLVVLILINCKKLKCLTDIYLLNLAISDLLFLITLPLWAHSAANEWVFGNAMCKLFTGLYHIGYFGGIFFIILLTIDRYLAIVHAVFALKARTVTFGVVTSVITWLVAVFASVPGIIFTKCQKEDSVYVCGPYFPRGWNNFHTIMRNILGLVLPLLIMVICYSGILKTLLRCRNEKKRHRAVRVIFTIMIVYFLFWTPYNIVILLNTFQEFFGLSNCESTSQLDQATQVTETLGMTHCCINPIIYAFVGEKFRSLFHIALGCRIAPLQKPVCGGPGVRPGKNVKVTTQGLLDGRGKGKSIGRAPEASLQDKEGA
Chain of P2RY6 (Q15077 whole entry): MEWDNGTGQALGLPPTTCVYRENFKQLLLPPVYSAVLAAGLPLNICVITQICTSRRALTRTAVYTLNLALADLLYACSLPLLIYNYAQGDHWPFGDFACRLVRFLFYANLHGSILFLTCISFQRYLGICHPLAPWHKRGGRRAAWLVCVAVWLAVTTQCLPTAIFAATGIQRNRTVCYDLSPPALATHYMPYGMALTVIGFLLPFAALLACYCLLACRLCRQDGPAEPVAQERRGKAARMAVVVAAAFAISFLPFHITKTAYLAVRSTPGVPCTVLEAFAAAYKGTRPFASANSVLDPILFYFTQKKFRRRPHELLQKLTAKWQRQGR
Chain of GPR109B (P49019 whole entry): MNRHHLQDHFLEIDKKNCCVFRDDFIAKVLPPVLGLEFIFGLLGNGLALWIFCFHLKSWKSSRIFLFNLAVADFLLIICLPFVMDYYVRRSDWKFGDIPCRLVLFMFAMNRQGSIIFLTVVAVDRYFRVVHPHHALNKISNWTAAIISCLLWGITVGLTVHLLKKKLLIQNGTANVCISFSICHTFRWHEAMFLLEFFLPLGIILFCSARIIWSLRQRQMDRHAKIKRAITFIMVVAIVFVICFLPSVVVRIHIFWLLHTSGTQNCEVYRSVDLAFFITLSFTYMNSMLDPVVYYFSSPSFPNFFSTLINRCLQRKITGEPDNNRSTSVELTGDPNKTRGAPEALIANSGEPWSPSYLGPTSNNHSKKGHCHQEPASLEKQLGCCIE
Chain of OXER1 (Q8TDS5 whole entry): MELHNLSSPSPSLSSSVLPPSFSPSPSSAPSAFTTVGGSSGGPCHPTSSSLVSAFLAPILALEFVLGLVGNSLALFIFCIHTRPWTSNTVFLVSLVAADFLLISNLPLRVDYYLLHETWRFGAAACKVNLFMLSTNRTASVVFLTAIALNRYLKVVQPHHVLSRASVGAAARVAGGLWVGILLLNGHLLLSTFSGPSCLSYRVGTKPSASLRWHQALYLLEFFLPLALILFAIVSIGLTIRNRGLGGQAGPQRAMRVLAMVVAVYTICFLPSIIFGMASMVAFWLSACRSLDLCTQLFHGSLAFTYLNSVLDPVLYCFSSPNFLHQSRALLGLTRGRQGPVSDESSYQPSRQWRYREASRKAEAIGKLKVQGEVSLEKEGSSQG
Chain of MLNR (O43193 whole entry): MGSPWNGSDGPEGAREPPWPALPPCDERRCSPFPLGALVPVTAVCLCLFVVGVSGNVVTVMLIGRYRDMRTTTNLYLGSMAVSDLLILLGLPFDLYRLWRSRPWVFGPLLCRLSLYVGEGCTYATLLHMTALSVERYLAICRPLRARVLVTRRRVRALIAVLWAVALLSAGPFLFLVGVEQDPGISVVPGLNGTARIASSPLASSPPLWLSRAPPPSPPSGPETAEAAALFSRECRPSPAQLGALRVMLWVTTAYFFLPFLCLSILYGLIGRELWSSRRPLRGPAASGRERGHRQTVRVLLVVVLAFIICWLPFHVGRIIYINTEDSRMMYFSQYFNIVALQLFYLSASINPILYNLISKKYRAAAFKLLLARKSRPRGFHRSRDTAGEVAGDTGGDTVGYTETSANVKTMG
Chain of P2RY12 (Q9H244 whole entry, one chain of several): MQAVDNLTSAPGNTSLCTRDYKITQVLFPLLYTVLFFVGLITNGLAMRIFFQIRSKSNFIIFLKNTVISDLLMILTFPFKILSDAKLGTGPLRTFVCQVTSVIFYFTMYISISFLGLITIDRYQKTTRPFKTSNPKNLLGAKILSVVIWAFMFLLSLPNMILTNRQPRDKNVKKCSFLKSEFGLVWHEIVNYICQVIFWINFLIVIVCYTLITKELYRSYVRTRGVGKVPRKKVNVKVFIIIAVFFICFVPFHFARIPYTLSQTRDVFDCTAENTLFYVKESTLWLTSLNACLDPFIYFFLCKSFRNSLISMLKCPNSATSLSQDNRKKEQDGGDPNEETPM
Chain of NPSR1B (Q6W5P4 1-377 isoform Q6W5P4-4): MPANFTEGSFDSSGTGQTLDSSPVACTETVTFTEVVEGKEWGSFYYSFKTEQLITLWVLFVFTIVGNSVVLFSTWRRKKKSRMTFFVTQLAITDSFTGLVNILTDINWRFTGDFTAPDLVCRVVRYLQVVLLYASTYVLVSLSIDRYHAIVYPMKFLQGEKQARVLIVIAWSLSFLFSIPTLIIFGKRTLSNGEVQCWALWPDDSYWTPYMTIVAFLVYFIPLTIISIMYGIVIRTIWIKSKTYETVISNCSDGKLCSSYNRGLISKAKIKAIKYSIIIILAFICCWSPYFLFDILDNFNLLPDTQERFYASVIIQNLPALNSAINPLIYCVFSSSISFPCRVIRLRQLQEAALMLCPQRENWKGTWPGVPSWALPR
Chain of P2RY4 (P51582 whole entry): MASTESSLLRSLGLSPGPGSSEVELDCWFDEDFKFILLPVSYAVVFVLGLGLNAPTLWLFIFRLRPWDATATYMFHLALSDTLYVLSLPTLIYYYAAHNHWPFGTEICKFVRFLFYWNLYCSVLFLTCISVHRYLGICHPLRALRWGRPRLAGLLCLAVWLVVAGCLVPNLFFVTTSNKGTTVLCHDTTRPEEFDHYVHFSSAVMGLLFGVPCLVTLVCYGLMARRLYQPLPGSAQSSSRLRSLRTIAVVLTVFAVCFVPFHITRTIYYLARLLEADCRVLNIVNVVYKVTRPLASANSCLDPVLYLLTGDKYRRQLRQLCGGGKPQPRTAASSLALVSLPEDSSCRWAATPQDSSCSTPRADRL
Chain of P2RY2 (P41231 whole entry): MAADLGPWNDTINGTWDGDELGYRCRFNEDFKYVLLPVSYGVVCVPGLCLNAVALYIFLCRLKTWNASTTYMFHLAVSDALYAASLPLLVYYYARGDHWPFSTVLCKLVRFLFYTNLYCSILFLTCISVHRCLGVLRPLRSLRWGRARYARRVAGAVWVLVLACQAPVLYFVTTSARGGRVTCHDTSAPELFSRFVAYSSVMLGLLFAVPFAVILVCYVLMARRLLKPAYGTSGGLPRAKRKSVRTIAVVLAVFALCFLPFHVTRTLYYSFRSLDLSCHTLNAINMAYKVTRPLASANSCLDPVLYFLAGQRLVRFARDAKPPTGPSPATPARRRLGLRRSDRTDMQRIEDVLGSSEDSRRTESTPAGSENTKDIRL
Chain of TBXA2R (P21731 whole entry): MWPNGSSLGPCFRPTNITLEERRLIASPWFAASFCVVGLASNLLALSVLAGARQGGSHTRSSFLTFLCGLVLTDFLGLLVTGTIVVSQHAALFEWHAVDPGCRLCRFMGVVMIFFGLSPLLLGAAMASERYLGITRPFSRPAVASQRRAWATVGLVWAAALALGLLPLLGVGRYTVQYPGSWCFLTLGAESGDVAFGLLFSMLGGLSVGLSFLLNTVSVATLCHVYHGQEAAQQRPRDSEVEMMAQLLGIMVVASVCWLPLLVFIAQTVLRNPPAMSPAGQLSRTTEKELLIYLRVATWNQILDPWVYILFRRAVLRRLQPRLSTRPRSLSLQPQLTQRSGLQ
Chain of GPR119 (Q8TDV5 whole entry): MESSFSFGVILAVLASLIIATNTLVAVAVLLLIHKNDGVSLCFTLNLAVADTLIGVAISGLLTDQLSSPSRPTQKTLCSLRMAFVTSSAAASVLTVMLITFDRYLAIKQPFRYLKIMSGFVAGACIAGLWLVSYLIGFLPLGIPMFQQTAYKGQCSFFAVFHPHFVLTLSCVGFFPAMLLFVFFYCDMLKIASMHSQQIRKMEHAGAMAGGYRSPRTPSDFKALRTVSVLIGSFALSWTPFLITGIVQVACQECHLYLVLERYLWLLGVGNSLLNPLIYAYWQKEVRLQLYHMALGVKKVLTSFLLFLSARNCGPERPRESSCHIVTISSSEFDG
Chain of PTAFR (P25105 whole entry): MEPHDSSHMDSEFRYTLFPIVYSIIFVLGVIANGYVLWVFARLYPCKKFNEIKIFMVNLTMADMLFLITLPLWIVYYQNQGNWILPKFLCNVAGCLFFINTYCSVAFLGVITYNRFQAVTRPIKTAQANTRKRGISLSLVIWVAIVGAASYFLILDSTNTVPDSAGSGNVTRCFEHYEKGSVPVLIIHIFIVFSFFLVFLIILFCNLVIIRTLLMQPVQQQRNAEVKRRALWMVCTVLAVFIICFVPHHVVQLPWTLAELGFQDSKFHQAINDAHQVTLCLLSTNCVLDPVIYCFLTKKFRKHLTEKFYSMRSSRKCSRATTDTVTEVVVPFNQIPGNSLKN

CC#CCC(C)[C@H](O)/C=C/[C@@H]1[C@H]2c3cccc(CCCC(=O)O)c3O[C@H]2C[C@H]1O (mixture of isomers) [Beraprost]
EC50 [1]: 219 nM

COc1ccc2[nH]c(I)c(CCNC(C)=O)c2c1 [2-Iodomelatonin]
EC80 [2]: 2.77 nM | Max Response [2]: 102.67

CSc1nc(N)c2ncn([C@@H]3O[C@H](COP(=O)(O)OP(=O)(O)O)[C@@H](O)[C@H]3O)c2n1 [2-methylthio-ADP]
EC50 [3]: 2.72 nM

CCCCCC(O)CC(=O)O (stereo not shown) [3-Hydroxyoctanoic Acid]
EC50 [4]: 373000 nM

CCCCC/C=C\C/C=C\C/C=C\C=C\C(=O)CCCC(=O)O [5-OxoETE]
EC50 [5]: 1140 nM

CC(C)C[C@H](NC(=O)CNC(=O)[C@@H]1CCCN1C(=O)[C@@H](N)CCCNC(=N)N)C(=O)N[C@H](CC(C)C)C(=O)N[C@@H](CC(=O)O)C(=O)N[C@@H](CC(C)C)C(=O)N[C@@H](CCCCN)C(N)=O [AntOP, Arg-Pro-Gly-Leu-(D-Leu)-Asp-Leu-Lys] (HELM PEPTIDE1{R.P.G.L.[dL].D.L.K.[am]}$$$$V2.0)
effect of pretreatment on Ex-4-induced kaolin intake [6]: did not significantly elevate kaolin intake relative to controls

CCCCCCC(C)(C)c1ccc([C@@H]2C[C@H](O)CC[C@H]2CCCO)c(O)c1 [CP55940]
Max Response [2]: 104.27 and 99.599

CC(C)C[C@H](NC(=O)[C@H](CCCCN)NC(=O)CNC(=O)[C@H](CC(C)C)NC(=O)[C@@H](NC(=O)[C@@H]1CSSC[C@H](N)C(=O)N[C@@H](CO)C(=O)N[C@@H](CC(N)=O)C(=O)N[C@@H](CC(C)C)C(=O)N[C@@H](CO)C(=O)N[C@@H]([C@@H](C)O)C(=O)N1)C(C)C)C(=O)N[C@@H](CO)C(=O)N[C@@H](CCC(N)=O)C(=O)N[C@@H](CCC(=O)O)C(=O)N[C@@H](CC(C)C)C(=O)N[C@@H](Cc1c[nH]cn1)C(=O)N[C@@H](CCCCN)C(=O)N[C@@H](CC(C)C)C(=O)N[C@@H](CCC(N)=O)C(=O)N[C@H](C(=O)N[C@@H](Cc1ccc(O)cc1)C(=O)N1CCC[C@H]1C(=O)N[C@@H](CCCNC(=N)N)C(=O)N[C@H](C(=O)N[C@@H](CC(N)=O)C(=O)N[C@H](C(=O)NCC(=O)N[C@@H](CO)C(=O)NCC(=O)N[C@H](C(=O)N1CCC[C@H]1C(N)=O)[C@@H](C)O)[C@@H](C)O)[C@@H](C)O)[C@@H](C)O [Calcitonin]
Max Response [2]: 102.54 and 108.07 and 103.06

O=C(O)CCC/C=C\C[C@@H]1[C@@H](/C=C/[C@@H](O)COc2ccc(I)cc2)[C@H]2CC[C@@H]1O2 [I-BOP]
EC50 [7]: 21.3 nM

CC(C)C[C@H](NC(=O)CNC(=O)[C@H](Cc1ccccc1)NC(=O)[C@H](CO)NC(=O)[C@H](CC(N)=O)NC(=O)[C@H](Cc1c[nH]c2ccccc12)NC(=O)[C@H](CC(N)=O)NC(=O)[C@@H](N)Cc1ccc(O)cc1)C(=O)N[C@@H](CCCNC(=N)N)C(=O)N[C@@H](Cc1ccccc1)C(N)=O [Kisspeptin-10]
EC50 [8]: 17.6 nM

CCCCCCCCCCCCCCCC(=O)N[C@@H](CCC(=O)NCCCC[C@H](NC(=O)[C@H](C)NC(=O)[C@H](C)NC(=O)[C@H](CCC(N)=O)NC(=O)CNC(=O)[C@H](CCC(=O)O)NC(=O)[C@H](CC(C)C)NC(=O)[C@H](Cc1ccc(O)cc1)NC(=O)[C@H](CO)NC(=O)[C@H](CO)NC(=O)[C@@H](NC(=O)[C@H](CC(=O)O)NC(=O)[C@H](CO)NC(=O)[C@@H](NC(=O)[C@H](Cc1ccccc1)NC(=O)[C@@H](NC(=O)CNC(=O)[C@H](CCC(=O)O)NC(=O)[C@H](C)NC(=O)[C@@H](N)Cc1cnc[nH]1)[C@@H](C)O)[C@@H](C)O)C(C)C)C(=O)N[C@@H](CCC(=O)O)C(=O)N[C@@H](Cc1ccccc1)C(=O)N[C@H](C(=O)N[C@@H](C)C(=O)N[C@@H](Cc1c[nH]c2ccccc12)C(=O)N[C@@H](CC(C)C)C(=O)N[C@H](C(=O)N[C@@H](CCCNC(=N)N)C(=O)NCC(=O)N[C@@H](CCCNC(=N)N)C(=O)NCC(=O)O)C(C)C)[C@@H](C)CC)C(=O)O [Liraglutide, liraglutide]
kaolin intake [9]: Kaolin intake was increased

CC[C@H](C)[C@H](NC(=O)[C@@H]1CCCN1C(=O)[C@@H](NC(=O)[C@@H](N)Cc1ccccc1)C(C)C)C(=O)N[C@@H](Cc1ccccc1)C(=O)N[C@H](C(=O)N[C@@H](Cc1ccc(O)cc1)C(=O)NCC(=O)N[C@@H](CCC(=O)O)C(=O)N[C@@H](CC(C)C)C(=O)N[C@@H](CCC(N)=O)C(=O)N[C@@H](CCCNC(=N)N)C(=O)N[C@@H](CCSC)C(=O)N[C@@H](CCC(N)=O)C(=O)N[C@@H](CCC(=O)O)C(=O)N[C@@H](CCCCN)C(=O)N[C@@H](CCC(=O)O)C(=O)N[C@@H](CCCNC(=N)N)C(=O)N[C@@H](CC(N)=O)C(=O)N[C@@H](CCCCN)C(=O)NCC(=O)N[C@@H](CCC(N)=O)C(=O)O)[C@@H](C)O [Motilin]
EC50 [10]: 1.59 nM

CCCCCCCC/C=C\CCCCCCCC(=O)NCCO [Oleoyl Ethanolamide]
EC50 [11]: 1840 nM

CCCCCCCCCCCCCCCCOC[C@H](COP(=O)([O-])OCC[N+](C)(C)C)OC(C)=O [PAF]
EC50 [12]: 3.82 nM

CC[C@H](C)[C@H](NC(=O)CNC(=O)[C@H](CCCNC(=N)N)NC(=O)[C@H](CO)NC(=O)[C@H](C)NC(=O)[C@H](Cc1ccc(O)cc1)NC(=O)[C@H](Cc1c[nH]c2ccccc12)NC(=O)[C@H](C)NC(=O)[C@@H]1CCCN1C(=O)[C@H](CC(N)=O)NC(=O)[C@@H](NC(=O)[C@H](CC(=O)O)NC(=O)[C@@H]1CCCN1C(=O)[C@@H](NC(=O)[C@H](CCCNC(=N)N)NC(=O)[C@@H](NC(=O)[C@H](CCC(=O)O)NC(=O)[C@H](CCSC)NC(=O)[C@H](CO)NC(=O)[C@H](Cc1c[nH]cn1)NC(=O)[C@H](CCCNC(=N)N)NC(=O)[C@H](Cc1c[nH]cn1)NC(=O)[C@@H](NC(=O)[C@H](CCCNC(=N)N)NC(=O)[C@@H](N)CO)[C@@H](C)O)[C@@H](C)CC)[C@@H](C)O)[C@@H](C)CC)C(=O)N[C@@H](CCCNC(=N)N)C(=O)N1CCC[C@H]1C(=O)N[C@H](C(=O)NCC(=O)N[C@@H](CCCNC(=N)N)C(=O)N[C@@H](Cc1ccccc1)C(N)=O)C(C)C [PrRP-31]
EC80 [2]: 10.72 nM | Max Response [2]: 101.19

O=c1ccn([C@@H]2O[C@H](COP(=O)(O)OP(=O)(O)O)[C@@H](O)[C@H]2O)c(=O)[nH]1 [UDP]
EC50 [13]: 13.3 nM

O=c1ccn([C@@H]2O[C@H](COP(=O)(O)OP(=O)(O)OP(=O)(O)O)[C@@H](O)[C@H]2O)c(=O)[nH]1 [UTP]
EC50 [14]: 431 nM | EC50 [15]: 126 nM

CCL2: control agonist
EC50 [16]: 2.63 nM

DVNTDRPGLLDLK-NH2 [TDN]
kaolin intake ([17]; 4th ventricle injection, HFD-maintained rats): mildly increase kaolin intake in HFD-maintained rats | kaolin intake ([17]; 4th ventricle injection, chow-maintained rats): did not alter kaolin intake in chow rats | kaolin intake ([17]; lateral ventricle injection, chow and HFD rats): did not affect kaolin intake

QATVGDVNTDRPGLLDLK-NH2 [ODN]
emesis ([18]; intraperitoneal 500 μg/kg or 5000 μg/kg): without including emesis | emetic episodes ([18]; high ODN dose): no emetic episodes were observed | emetic episodes ([18]; low ODN dose): one of 9 shrews had an emetic episode

SFRNGVGTGMKKTSFQRAKS [Neuropeptide S]
EC50 [19]: 23.6 nM

exendin-4 [Ex-4]
24 h body weight change ([20]; HFD-maintained rats): decreased 24 h body weight change relative to controls | 24 h body weight change ([20]; chow-maintained rats): decreased 24 h body weight change relative to controls | DBI protein expression in NTS and AP [21]: not different between treatments in HFD-maintained rats
